The record followed here is ChEMBL document CHEMBL4808209 (J Med Chem, 2021).

The IC50 is the point on the concentration scale where inhibition reaches its midpoint. One may read the bioavailability as the share of a dose that reaches the circulation, judged against a reference dose that is usually intravenous. The half-life is how long it takes for the measured level to halve. By AUC is commonly meant the area under the concentration-time curve, a measure of exposure. Broadly, the solubility is how much of the substance goes into solution per volume.

≈ marks a conversion by molar mass, not a printed value.

Data set [1] has as its target Vascular endothelial growth factor receptor 2 (Homo sapiens, UniProt P35968). The experiment in a line: Inhibition of human recombinant N-terminal His6-tagged VEGFR2 expressed in baculovirus infected Sf21insect cells using biotin-labeled EQEDEPEGDYFEWLE peptide as substrate incubated for 20 mins in presence of ATP by plate reader assay. The arrangement: species or system Sf21.

Data set [2] concerns the target Fibroblast growth factor receptor 1 (Homo sapiens, UniProt P11362). The experiment in a line: Inhibition of human FGFR1 using biotinylated-EQEDEPEGDYFEWLE peptide as substrate incubated for 1 hr in presence of ATP by FRET assay.
Data set [3] concerns the target Tyrosine-protein kinase JAK2 (Homo sapiens, UniProt O60674). Kind of data set: Inhibition of JAK2 (unknown origin).
The nature of data set [4]: Volume of distribution at steady state in cynomolgus monkey at 2 mg/kg, po or 1 mg/kg, iv administered as cassette dose measured after 24 hrs. Format: ADME, organism-based, Macaca fascicularis. The conditions noted are these: in vivo, read-out: Vdss.
The nature of data set [5]: Clearance in cynomolgus monkey at 2 mg/kg, po or 1 mg/kg, iv administered as cassette dose measured after 24 hrs relative to hepatic blood flow. Format: ADME, organism-based, Macaca fascicularis. Conditions: in vivo.
Data set [6] can be described thus: Oral bioavailability in cynomolgus monkey at 2 mg/kg administered as cassette dose measured after 24 hrs. The format is ADME, organism-based, Macaca fascicularis. Conditions: in vivo.
Data set [7] can be described thus: Permeability across apical to basolateral membrane in human Caco-2 cells at 50 uM incubated for 120 mins by LC-MS/MS analysis. The format is ADME, cell-based. Conditions: read-out: permeability. For orientation: Passage across Caco-2 layers is used to estimate intestinal permeability.
Data set [8] can be described thus: Half life in Sprague-Dawley rat at 2 mg/kg, po or 1 mg/kg, iv administered as cassette dose measured after 24 hrs. The format is ADME, organism-based. The conditions noted are these: in vivo.
Data set [9] can be described thus: Inhibition of phosphorylated FGFR2alpha in human KATO III stomach cancer cell line spiked in human whole blood incubated for 4 hrs by ELISA. Format: tissue-based. In general terms: ELISA stands for enzyme-linked immunosorbent assay.
Data set [10] in a line: AUC in Sprague-Dawley rat at 2 mg/kg, po or 1 mg/kg, iv administered as cassette dose measured after 24 hrs. Format: ADME, organism-based. The arrangement: time 24 hrs, dose 2 mg/kg. The conditions noted are these: in vivo.
Data set [11] is described as follows: Volume of distribution at steady state in Sprague-Dawley rat at 2 mg/kg, po or 1 mg/kg, iv administered as cassette dose measured after 24 hrs. The format is ADME, organism-based. Conditions: in vivo, read-out: Vdss.
Data set [12] can be described thus: Solubility of the compound in FaSSIF by HPLC analysis. Format: physicochemical.
Data set [13] is described as follows: Oral bioavailability in Sprague-Dawley rat at 2 mg/kg administered as cassette dose measured after 24 hrs. The format is ADME, organism-based. Conditions: in vivo.
Data set [14] is described as follows: AUC in cynomolgus monkey at 2 mg/kg, po or 1 mg/kg, iv administered as cassette dose measured after 24 hrs. Format: ADME, organism-based, Macaca fascicularis. Also noted: time 24 hrs, dose 2 mg/kg. The conditions noted are these: in vivo.
Data set [15] can be described thus: Half life in cynomolgus monkey at 2 mg/kg, po or 1 mg/kg, iv administered as cassette dose measured after 24 hrs. The format is ADME, organism-based, Macaca fascicularis. The conditions noted are these: in vivo.
A short description of data set [16]: Intrinsic clearance in human liver microsomes at 1 uM measured up to 30 mins in presence of NADPH by LC/MS analysis. The format is ADME, Microsome. Conditions: read-out: CLH (converted). Background: Liver microsomes are vesicles of endoplasmic reticulum, rich in cytochrome P450 enzymes.
The nature of data set [17]: Clearance in Sprague-Dawley rat at 2 mg/kg, po or 1 mg/kg, iv administered as cassette dose measured after 24 hrs relative to hepatic blood flow. Format: ADME, organism-based. The conditions noted are these: in vivo.
Data set [18] deals with T1, CYP3A4 (Homo sapiens, UniProt P08684). Kind of data set: Time dependent inhibition of CYP3A4 enzyme activity in human liver microsomes at 20 uM using midazolam as substrate substrate preincubated for 30 mins in presence of NADPH relative to control. Format: ADME. Conditions: probe midazolam, read-out: TDI.
Data set [19] in a line: Antiproliferative activity against human B49 assessed as inhibition of cell proliferation incubated for 3 days by Cell Titer Aqueous96 one solution reagent assay. The conditions noted are these: KATO III, 72 h.
Another data set deals with NCI-H1581. The experiment in a line: Antiproliferative activity against human NCI-H1581 cells assessed as inhibition of cell proliferation incubated for 3 days by Cell Titer Aqueous96 one solution reagent assay. The conditions noted are these: NCI-H1581, 72 h.
The target in data set [20] is T1, CYP3A4. The experiment in a line: Time dependent inhibition of CYP3A4 in human liver microsomes at 10 uM using midazolam as substrate substrate preincubated for 30 mins in presence of NADPH followed by substrate addition and measured after 8 mins relative to control. The format is ADME. Conditions: probe midazolam, time 38 min, read-out: TDI.

T1 sequence (P08684 whole entry): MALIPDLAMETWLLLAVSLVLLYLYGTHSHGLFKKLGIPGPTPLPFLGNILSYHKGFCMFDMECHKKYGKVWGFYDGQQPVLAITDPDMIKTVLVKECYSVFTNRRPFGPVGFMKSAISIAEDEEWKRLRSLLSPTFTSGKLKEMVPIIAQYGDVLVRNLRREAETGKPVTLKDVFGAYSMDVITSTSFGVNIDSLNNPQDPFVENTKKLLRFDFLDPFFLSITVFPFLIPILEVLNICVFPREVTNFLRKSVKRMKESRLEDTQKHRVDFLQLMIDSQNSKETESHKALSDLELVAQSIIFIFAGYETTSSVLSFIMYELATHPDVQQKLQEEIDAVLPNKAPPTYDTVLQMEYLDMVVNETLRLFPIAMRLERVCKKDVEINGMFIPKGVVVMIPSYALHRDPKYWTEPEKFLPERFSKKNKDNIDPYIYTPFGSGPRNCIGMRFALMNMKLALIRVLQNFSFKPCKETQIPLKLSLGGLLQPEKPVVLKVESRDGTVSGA
Chain of Vascular endothelial growth factor receptor 2 (P35968 whole entry): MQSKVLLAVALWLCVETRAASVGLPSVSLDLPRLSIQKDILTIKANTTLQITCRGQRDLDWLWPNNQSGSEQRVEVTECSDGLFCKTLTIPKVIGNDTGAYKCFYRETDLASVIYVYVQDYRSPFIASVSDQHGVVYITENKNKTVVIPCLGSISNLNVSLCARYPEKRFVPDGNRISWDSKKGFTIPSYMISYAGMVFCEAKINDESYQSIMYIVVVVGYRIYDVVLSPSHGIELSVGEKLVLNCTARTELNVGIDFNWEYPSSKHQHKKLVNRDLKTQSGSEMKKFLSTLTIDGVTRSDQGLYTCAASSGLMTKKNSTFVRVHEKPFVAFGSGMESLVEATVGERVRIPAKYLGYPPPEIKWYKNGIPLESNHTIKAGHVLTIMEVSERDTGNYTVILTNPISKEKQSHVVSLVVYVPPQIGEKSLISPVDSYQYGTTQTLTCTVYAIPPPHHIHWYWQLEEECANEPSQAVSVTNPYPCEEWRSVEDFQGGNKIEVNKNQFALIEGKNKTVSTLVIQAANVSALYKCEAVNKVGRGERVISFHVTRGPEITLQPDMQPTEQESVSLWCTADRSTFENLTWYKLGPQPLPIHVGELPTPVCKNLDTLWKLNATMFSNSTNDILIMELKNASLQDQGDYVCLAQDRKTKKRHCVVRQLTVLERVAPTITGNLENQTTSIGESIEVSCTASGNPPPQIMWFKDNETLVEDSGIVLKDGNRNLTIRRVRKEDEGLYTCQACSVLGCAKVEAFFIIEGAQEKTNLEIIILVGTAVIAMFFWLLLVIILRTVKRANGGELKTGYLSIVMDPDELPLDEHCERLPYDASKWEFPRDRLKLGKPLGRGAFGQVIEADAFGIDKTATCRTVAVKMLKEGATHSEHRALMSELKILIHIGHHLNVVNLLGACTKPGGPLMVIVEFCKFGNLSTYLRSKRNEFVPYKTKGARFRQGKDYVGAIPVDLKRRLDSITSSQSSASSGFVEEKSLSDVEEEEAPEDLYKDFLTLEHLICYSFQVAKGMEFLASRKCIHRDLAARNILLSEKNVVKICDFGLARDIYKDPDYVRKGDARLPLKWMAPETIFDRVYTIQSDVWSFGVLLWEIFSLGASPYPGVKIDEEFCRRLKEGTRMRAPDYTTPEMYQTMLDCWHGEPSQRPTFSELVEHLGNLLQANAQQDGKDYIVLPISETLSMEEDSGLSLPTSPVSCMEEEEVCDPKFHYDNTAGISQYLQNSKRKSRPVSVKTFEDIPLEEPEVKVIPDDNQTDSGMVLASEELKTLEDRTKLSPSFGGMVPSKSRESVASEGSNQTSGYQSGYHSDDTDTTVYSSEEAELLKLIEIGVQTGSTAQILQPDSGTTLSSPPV
Chain of Fibroblast growth factor receptor 1 (P11362 whole entry): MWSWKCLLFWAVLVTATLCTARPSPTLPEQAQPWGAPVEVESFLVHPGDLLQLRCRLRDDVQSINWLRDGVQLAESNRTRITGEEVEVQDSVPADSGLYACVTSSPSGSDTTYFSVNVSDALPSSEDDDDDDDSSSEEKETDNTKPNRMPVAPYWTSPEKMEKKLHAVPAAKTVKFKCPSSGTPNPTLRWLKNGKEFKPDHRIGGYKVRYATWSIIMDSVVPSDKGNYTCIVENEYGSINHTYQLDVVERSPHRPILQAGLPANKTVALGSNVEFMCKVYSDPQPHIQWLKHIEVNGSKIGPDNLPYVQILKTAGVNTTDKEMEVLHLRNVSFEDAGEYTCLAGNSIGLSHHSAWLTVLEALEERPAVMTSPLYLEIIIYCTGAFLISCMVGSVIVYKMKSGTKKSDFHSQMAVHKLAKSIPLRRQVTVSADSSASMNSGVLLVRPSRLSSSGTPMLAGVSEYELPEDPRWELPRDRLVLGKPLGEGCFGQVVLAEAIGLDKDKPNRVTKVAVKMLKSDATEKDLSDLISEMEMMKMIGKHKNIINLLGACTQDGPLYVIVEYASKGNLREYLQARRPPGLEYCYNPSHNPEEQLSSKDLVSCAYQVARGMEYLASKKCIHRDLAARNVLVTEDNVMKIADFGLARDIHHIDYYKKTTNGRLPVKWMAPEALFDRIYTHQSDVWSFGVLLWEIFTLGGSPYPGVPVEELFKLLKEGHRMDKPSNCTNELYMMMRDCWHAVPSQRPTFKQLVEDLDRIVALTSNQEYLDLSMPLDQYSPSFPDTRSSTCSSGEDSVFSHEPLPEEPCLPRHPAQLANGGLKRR
Chain of Tyrosine-protein kinase JAK2 (O60674 whole entry): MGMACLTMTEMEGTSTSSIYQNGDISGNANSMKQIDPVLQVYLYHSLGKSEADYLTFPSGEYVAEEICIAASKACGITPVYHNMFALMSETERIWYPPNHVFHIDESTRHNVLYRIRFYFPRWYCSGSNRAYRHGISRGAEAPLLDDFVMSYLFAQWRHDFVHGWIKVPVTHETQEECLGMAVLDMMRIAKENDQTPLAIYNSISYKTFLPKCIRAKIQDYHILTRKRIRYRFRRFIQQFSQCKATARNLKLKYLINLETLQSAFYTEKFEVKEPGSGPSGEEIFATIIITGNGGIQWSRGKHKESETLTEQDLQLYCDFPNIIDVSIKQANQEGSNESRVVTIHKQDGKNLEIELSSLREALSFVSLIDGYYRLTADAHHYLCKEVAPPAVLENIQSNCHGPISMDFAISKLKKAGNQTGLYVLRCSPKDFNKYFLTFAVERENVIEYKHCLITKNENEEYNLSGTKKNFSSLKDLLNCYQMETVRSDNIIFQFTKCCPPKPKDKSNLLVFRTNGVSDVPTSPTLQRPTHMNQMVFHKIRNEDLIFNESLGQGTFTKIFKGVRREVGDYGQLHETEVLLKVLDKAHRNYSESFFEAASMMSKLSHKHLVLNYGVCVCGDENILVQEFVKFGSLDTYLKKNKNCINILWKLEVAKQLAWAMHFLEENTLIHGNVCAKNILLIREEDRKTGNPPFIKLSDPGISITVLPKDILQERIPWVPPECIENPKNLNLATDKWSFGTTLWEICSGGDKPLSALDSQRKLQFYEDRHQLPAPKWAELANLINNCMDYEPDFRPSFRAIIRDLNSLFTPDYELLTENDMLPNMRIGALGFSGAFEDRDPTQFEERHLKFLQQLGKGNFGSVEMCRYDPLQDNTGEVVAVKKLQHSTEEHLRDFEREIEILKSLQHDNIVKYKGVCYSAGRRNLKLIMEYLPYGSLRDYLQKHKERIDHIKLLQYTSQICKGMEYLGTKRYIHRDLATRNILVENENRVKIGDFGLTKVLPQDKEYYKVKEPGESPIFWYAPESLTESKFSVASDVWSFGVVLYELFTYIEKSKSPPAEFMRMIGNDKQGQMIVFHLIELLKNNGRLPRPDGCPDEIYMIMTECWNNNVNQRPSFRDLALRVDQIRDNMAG

As to `COc1ccc2nc(N3CCC(C(CC#N)n4cc(-c5ncnc6[nH]ccc56)cn4)CC3)sc2c1` (stereo not drawn), the values for the IC50 in [1], in [2] and in data set [3] were 2060 nM, 6 nM and less than 1 nM, respectively.
On to `CCN1C(=O)N(c2c(F)c(OC)cc(OC)c2F)Cc2cnc3[nH]ncc3c21`, for which the figures for the Vd in data set [4] and in data set [11] were 0.25 L/kg and 0.47 L/kg, respectively. Also, the results for the CL in data set [5] and in data set [17] were 12% and 20%, respectively. In addition, the bioavailability in data set [6] is 16%; in data set [13], greater than 100%. Besides, the Papp A→B at 2 h, 50 µM in data set [7] was 8.3 ×10⁻⁶ cm/s. Further, the half-life in [8] is 0.7 h; in data set [15], 1.6 h. Also, inhibition in data set [9] was half-maximal at 18 nM (IC50). Also, the AUC at 24 h in data set [10] worked out at 8 µM·h; in [14], 2.64 µM·h. The compound also had a solubility in [12] of 3 µg/mL (≈ 7.7 µM). Moreover, the CLint scaled at 1 µM in [16] is 15 mL/min/kg.
Turning to `COc1cc(OC)c(F)c(N2Cc3cnc4c(c3N(c3cccc(F)c3F)C2=O)CC(=O)N4)c1F`, the figures for the IC50 (in data set [9]; in data set [19]; with NCI-H1581) were 25 nM, 3.9 nM and 18 nM, respectively. Also, the solubility in [12] is 77 µg/mL (≈ 158 µM). The inhibition at 30 mins, 20 µM at CYP3A4 [18] was determined as 30%.
Take `CCN1CCC(Cc2cc3c4c(cnc3[nH]2)CN(c2c(F)c(OC)cc(OC)c2F)C(=O)N4C)CC1`: the inhibition at 8 min, 10 µM at CYP3A4 [20] was determined as 22%. In data set [8], this compound showed a half-life of 0.7 h. In data set [9], this compound had an IC50 of 16 nM. In data set [10], this compound had an AUC at 24 h of 0.166 µM·h. Also, the Vd in data set [11] came out at 0.42 L/kg. The compound also came in with a solubility in data set [12] of 200 µg/mL (≈ 400 µM). This compound came in with a bioavailability in data set [13] of 7%. In data set [17], the CL is on record as 51%.
With `COc1cc(OC)c(F)c(N2Cc3cnc4[nH]c(CN5CCOCC5)cc4c3N(C)C2=O)c1F`, the Vd in data set [4] amounted to 0.74 L/kg; in [11] it was 1.25 L/kg. Also, the CL in data set [5] is reported as 8%; in data set [17], 31%. In addition, the bioavailability in [6] is 53%; in data set [13], 100%. In addition, the inhibition at 8 min, 10 µM at CYP3A4 [20] was 4%. The values for the half-life in data set [8] and in data set [15] were 1.4 h and 7.9 h, respectively. In data set [9], this compound had an IC50 of 29 nM. Also, the AUC at 24 h was 8.19 µM·h in [10] and 11.8 µM·h in data set [14]. The compound further yielded a solubility in data set [12] of 17 µg/mL (≈ 35.9 µM).
